Laboratory results from paper PMC8678048 (Frontiers in Microbiology, 2021).
Where two headings read alike, the source gives them in different places. Positions of bridges follow the written chain, without caps; N, C: chain ends. Residues, ends and D or L forms follow the SMILES beside them.

Columns and labels:
[1] = system: ASFV SY18 strain; format: cell-based, African swine fever virus
[2] = system: human plasma (coagulation system); format: biochemical; conditions: pH 7.4
[3] = system: thrombin; format: biochemical; conditions: 10μM
[4] = system: Vero cells
[5] = system: PAM cells

CC[C@H](C)[C@@H]1NC(=O)CNC(=O)[C@H](CO)NC(=O)[C@@H]2CSSC[C@@H](C(=O)N[C@@H](Cc3ccc(O)cc3)C(=O)O)NC(=O)[C@H](CCCCN)NC(=O)[C@@H]3CSSC[C@H](NC(=O)[C@H](CCC(N)=O)NC(=O)[C@H](Cc4ccc(O)cc4)NC(=O)[C@H](CCC(N)=O)NC(=O)[C@H](CC(N)=O)NC(=O)[C@H](Cc4ccccc4)NC(=O)[C@@H]4CCCN4C(=O)[C@@H](NC(=O)CNC(=O)[C@H](Cc4ccc(O)cc4)NC(=O)CN)CSSC[C@H](NC(=O)[C@H](Cc4ccc(O)cc4)NC(=O)CNC(=O)CNC(=O)[C@H](CCCCN)NC(=O)[C@H](Cc4ccc(O)cc4)NC(=O)CNC(=O)[C@H](CCCNC(=N)N)NC1=O)C(=O)N[C@@H](CCCCN)C(=O)NCC(=O)N[C@@H]([C@@H](C)O)C(=O)N[C@@H](Cc1ccccc1)C(=O)N[C@@H](CCCCN)C(=O)N[C@@H](CCC(N)=O)C(=O)N[C@@H]([C@@H](C)O)C(=O)N3)C(=O)N[C@@H](Cc1c[nH]cn1)C(=O)N[C@@H](CO)C(=O)N[C@@H](Cc1c[nH]cn1)C(=O)N2 [OPTX-1] (H-GYGCPFNQYQCHSHCSGIRGYKGGYCKGTFKQTCKCY-OH; disulfide 4-26, 11-34, 15-36 (inferred); N-terminus and C-terminus assumed)
inhibition of ASFV infection/replication ([1]; 5μM): inhibited ASFV infection in PAM cells | inhibition of ASFV infection/replication ([1]; 10μM): inhibited ASFV infection in PAM cells | anticoagulant effect (plasma recalcification time) [2]: show anticoagulant effects in plasma-based coagulation assays | thrombin inhibitory effect [3]: the activity of thrombin was inhibited | cytotoxicity on Vero cells [4]: less cytotoxicity on Vero cells than other defensins | overall cytotoxicity (Vero and PAM cells) [4]: relative low cytotoxicities | cytotoxicity on PAM cells [5]: more significant than on Vero cells
